Measurements published in the NIST ThermoML archive (doi:10.1016/j.jct.2018.05.022).
Numbers after ± are expanded uncertainties.

Assay: molar heat capacity at constant volume
Conditions: Liquid, Vacuum adiabatic calorimetry

CCC [propane]
Conditions	molar heat capacity at constant volume [J/K/mol]
236.31 K, 2219 kPa	65.79 ± 1.3
238.69 K, 4211 kPa	66.23 ± 1.3
241.04 K, 6180 kPa	66.67 ± 1.3
243.36 K, 8127 kPa	66.58 ± 1.3
245.69 K, 10074 kPa	66.94 ± 1.3
250.09 K, 2085 kPa	67.6 ± 1.4
252.35 K, 3780 kPa	68.13 ± 1.4
254.59 K, 5476 kPa	68.13 ± 1.4
256.82 K, 7162 kPa	67.91 ± 1.4
259.03 K, 8839 kPa	68.48 ± 1.4
261.25 K, 10512 kPa	68.61 ± 1.4
264.41 K, 2430 kPa	69.1 ± 1.4
266.66 K, 3950 kPa	69.19 ± 1.4
268.92 K, 5488 kPa	70.24 ± 1.4
271.21 K, 7042 kPa	70.33 ± 1.4
273.5 K, 8593 kPa	70.2 ± 1.4
275.81 K, 10155 kPa	70.55 ± 1.4
283.73 K, 2629 kPa	71.61 ± 1.3
284.6 K, 1745 kPa	71.3 ± 1.5
286.92 K, 3057 kPa	71.88 ± 1.5
287.25 K, 4679 kPa	71.92 ± 1.5
289.25 K, 4373 kPa	72.23 ± 1.5
289.61 K, 6040 kPa	71.96 ± 1.4
291.57 K, 5681 kPa	72.32 ± 1.5
291.99 K, 7411 kPa	72.36 ± 1.4
293.9 K, 6981 kPa	72.98 ± 1.5
294.35 K, 8774 kPa	72.85 ± 1.5
296.28 K, 8309 kPa	73.15 ± 1.4
296.69 K, 10124 kPa	72.93 ± 1.5
298.66 K, 9622 kPa	73.2 ± 1.5
299 K, 11450 kPa	73.24 ± 1.5
300.98 K, 10901 kPa	74.35 ± 1.5
301.28 K, 12754 kPa	73.24 ± 1.5
303.33 K, 12177 kPa	74.65 ± 1.5
305.66 K, 13418 kPa	75.09 ± 1.5
306.13 K, 1912 kPa	74.7 ± 1.5
308.58 K, 3022 kPa	75.58 ± 1.5
311.04 K, 4140 kPa	75.62 ± 1.5
313.5 K, 5260 kPa	76.42 ± 1.5
315.96 K, 6379 kPa	76.55 ± 1.5
318.43 K, 7498 kPa	76.59 ± 1.5
320.89 K, 8615 kPa	77.52 ± 1.5
323.37 K, 9735 kPa	77.74 ± 1.5
325.84 K, 10852 kPa	78.18 ± 1.5
328.28 K, 11956 kPa	78.89 ± 1.5
330.71 K, 13052 kPa	79.33 ± 1.5
332.33 K, 10672 kPa	78.89 ± 1.5
334.81 K, 11722 kPa	79.81 ± 1.5
337.26 K, 12761 kPa	80.47 ± 1.5
339.76 K, 13813 kPa	80.65 ± 1.5

C=C(F)C(F)(F)F [2,3,3,3-tetrafluoro-1-propene]
Conditions	molar heat capacity at constant volume [J/K/mol]
240.93 K, 2261 kPa	92.26 ± 1.6
241.09 K, 2247 kPa	91.8 ± 1.6
243.43 K, 4295 kPa	92.26 ± 1.6
243.57 K, 4255 kPa	92.26 ± 1.6
245.94 K, 6342 kPa	92.37 ± 1.6
246.04 K, 6272 kPa	92.15 ± 1.6
248.38 K, 8336 kPa	92.72 ± 1.7
248.49 K, 8272 kPa	93.06 ± 1.7
250.77 K, 10288 kPa	93.29 ± 1.7
250.92 K, 10256 kPa	93.4 ± 1.7
255.49 K, 1804 kPa	95.79 ± 1.7
255.68 K, 1821 kPa	96.48 ± 1.7
257.93 K, 3569 kPa	97.51 ± 1.7
258.1 K, 3572 kPa	96.48 ± 1.7
260.34 K, 5312 kPa	97.62 ± 1.7
260.51 K, 5317 kPa	97.16 ± 1.7
262.77 K, 7065 kPa	97.51 ± 1.7
262.92 K, 7055 kPa	98.53 ± 1.8
265.3 K, 8891 kPa	98.65 ± 1.7
265.35 K, 8807 kPa	98.87 ± 1.7
267.77 K, 10554 kPa	98.87 ± 1.8
267.88 K, 10750 kPa	99.22 ± 1.7
270.17 K, 12276 kPa	99.56 ± 1.8
271.12 K, 1842 kPa	101.38 ± 1.8
273.54 K, 1673 kPa	102.07 ± 1.8
273.64 K, 3435 kPa	101.5 ± 1.8
275.98 K, 3181 kPa	102.07 ± 1.8
276.14 K, 5012 kPa	101.27 ± 1.8
278.43 K, 4690 kPa	101.95 ± 1.8
278.65 K, 6595 kPa	102.3 ± 1.8
280.94 K, 6231 kPa	102.64 ± 1.8
281.16 K, 8178 kPa	101.61 ± 1.8
283.46 K, 7781 kPa	102.75 ± 1.8
283.66 K, 9754 kPa	102.52 ± 1.8
285.91 K, 9285 kPa	102.98 ± 1.8
286.19 K, 11346 kPa	103.09 ± 1.7
288.36 K, 10789 kPa	104.01 ± 1.8
289.3 K, 1701 kPa	105.15 ± 1.8
291.52 K, 1716 kPa	105.72 ± 1.8
291.84 K, 3037 kPa	105.49 ± 1.8
294.09 K, 3043 kPa	106.4 ± 1.8
294.38 K, 4378 kPa	105.37 ± 1.8
296.67 K, 4372 kPa	106.4 ± 1.8
296.96 K, 5740 kPa	105.49 ± 1.8
299.24 K, 5702 kPa	106.97 ± 1.8
299.7 K, 7182 kPa	105.94 ± 1.7
301.83 K, 7034 kPa	106.86 ± 1.8
302.46 K, 8635 kPa	106.74 ± 1.8
304.42 K, 8365 kPa	107.54 ± 1.8
305.12 K, 10039 kPa	106.29 ± 1.8
307.01 K, 9699 kPa	108 ± 1.8
307.78 K, 11440 kPa	106.97 ± 1.8
309.61 K, 11035 kPa	108.34 ± 1.8
310.44 K, 12837 kPa	107.54 ± 1.8
312.2 K, 12365 kPa	108.8 ± 1.8
312.59 K, 3164 kPa	108.57 ± 1.8
315.28 K, 1983 kPa	109.37 ± 1.8
315.29 K, 4301 kPa	108.8 ± 1.8
317.99 K, 5437 kPa	108.91 ± 1.8
318.03 K, 3065 kPa	109.71 ± 1.8
320.68 K, 6570 kPa	110.62 ± 1.8
320.8 K, 4151 kPa	110.05 ± 1.8
323.36 K, 7700 kPa	110.28 ± 1.8
323.57 K, 5240 kPa	110.62 ± 1.8
326.04 K, 8827 kPa	110.62 ± 1.8
326.35 K, 6332 kPa	111.42 ± 1.8
328.72 K, 9952 kPa	112.22 ± 1.8
329.14 K, 7427 kPa	112.67 ± 1.8
331.41 K, 11079 kPa	112.9 ± 1.8
331.93 K, 8524 kPa	113.36 ± 1.8
334.09 K, 12201 kPa	113.24 ± 1.8
334.72 K, 9619 kPa	113.47 ± 1.8
337.49 K, 10709 kPa	113.7 ± 1.8
340.26 K, 11796 kPa	114.61 ± 1.8
